Reference: patent US4107299A, “Cardioactive 12-epi-digoxin and derivatives thereof” (Boehringer Mannheim GmbH, priority 1975, dated 1978)
Read-outs that look alike come from different tables or passages of the source.

Test system: insulated, electrically stimulated left atrium of the guinea pig
Test: Therapeutic effect and therapeutic spectrum at the insulated, electrically stimulated left atrium of the guinea pig
Assay type: cell-based
Conditions: mean and average deviation; for EC50 / Emax: Cavia porcellus; for Emax: in percentage of the decrease of the amplitude by reduction of the calcium content (1.8 to 0.45 mVal), read-out: Contraction Amplitude maximum increase (%); for Contraction Amplitude maximum increase: maximum contraction amplitude with increasing glycoside concentrations, calcium reduced from 1.8 to 0.45 mVal, 31° C, 3 Hz; for therapeutic spectrum: quotient EC50 decrease/EC50 increase
Description: Comparison of the therapeutic spectrum of various cardioactive glycosides was undertaken, employing electrical stimulation of the insulated left atrium of guinea pigs. Specifically, the left atrium was suspended in Tyrode solution at 31° C and electrically stimulated by a frequency of 3 Hz with rectangular impulses of 2 m sec. duration and optimum tension. The maximum contraction strength was registered semi-isometrically.
When a constant contraction amplitude has set in, the calcium concentration was reduced from 1.8 to 0.45 mVal. The initial tension was adjusted to 1 g at the start of the test; if necessary, it was adjusted after the readjustment to a solution poor in calcium, however, no longer changed during the further course of the experiment.
Of the glycosides to be tested, stock solutions were prepared in dimethyl acetamide and, for the test with NaCl-solution so diluted that the stated end concentrations were obtained with the addition of 0.1 ml to a bath volume of 80 ml. It was determined in preliminary tests that up to 0.4 ml undiluted dimethyl acetamide were tolerated without influencing the contractility.
If, after reduction of the calcium concnetration, a constant degree of contraction was again obtained after approximately 10 minutes, concentrations of the glycoside to be tested were added in the ratio 1 + 1 + 2 + 4, etc. The period between the individual additions was 15 minutes.
Prior to the change-over to a calcium-poor Tyrode solution and prior to each addition of glycoside, as well as 15 minutes after the last dose, the prestress was measured in grams and the contraction amplitude in mg. The difference of the amplitude was calculated from the test values for the contraction amplitude after reduction of the calcium content. The difference between the contraction amplitude before and after the change-over to a calcium-poor solution was put as equal to 100% amplitude reduction.
It was determined for each individual atrium when, with administration of increasing concentrations of the glycosides, there was obtained
the maximum contraction amplitude ("maximum increase");
increase of the amplitude to 50% of the difference between normal and reduced calcium content ("EC50 increase");
decrease of the contraction amplitude to the same height ("EC50 decrease");
the therapeutic spectrum quotient of the two EC50, i.e. EC50 decrease/EC50 increase.
With these evaluation processes, there are obtained numerical data for the concentration and the period during which the corresponding effect was observed. In order to obtain a uniform basis for the evaluation, differences in the time of the appearance were converted into concentrations according to the following method:
The logarithm of the concentration was graphically plotted against the time in such manner that the lowest concentration was put at 15 minutes, the next higher one at 30 minutes, etc. The evaluation of the tests yielded the time after the start of the test at which the respective effect had appeared. The concentration pertaining to it was read from the diagram.
This procedure is based on the assumption that the concentration increases exponentially at the place of the effect. De facto this assumption is more correct than a regular increase in concentration in stages in the bath liquid since there is a substantial time lapse between the increase of the concentration in the bath and in the tissue.
In addition, the maximum degree of […] was measured in all tests under the influence of the glycosides and in percentage of the decrease of the amplitude by reduction of the calcium content.

[1] = decrease of the contraction amplitude to the same height (50%) at higher concentrations, read-out: EC50 decrease
[2] = increase of the amplitude to 50% of the difference between normal and reduced calcium content, read-out: EC50 increase

In the case of `CO[C@H]1[C@@H](O)C[C@H](O[C@H]2[C@@H](O)C[C@H](O[C@H]3[C@@H](O)C[C@H](O[C@H]4CC[C@@]5(C)[C@H](CC[C@@H]6[C@@H]5C[C@@H](O)[C@]5(C)[C@@H](C7=CC(=O)OC7)CC[C@]65O)C4)O[C@@H]3C)O[C@@H]2C)O[C@@H]1C` [methyldigoxina., β-methyldigoxin, reference compound], the EC50 [1] is reported as 0.66 ± 0.04 µM, the Emax is reported as 75 ± 5% and the EC50 [2] is reported as 0.23 ± 0.03 µM. The “Contraction Amplitude maximum increase” value was 292 ± 56 mg and the therapeutic spectrum was 3.06±0.36.
`C[C@H]1O[C@@H](O[C@H]2[C@@H](O)C[C@H](O[C@H]3[C@@H](O)C[C@H](O[C@H]4CC[C@@]5(C)[C@H](CC[C@@H]6[C@@H]5C[C@H](O)[C@]5(C)[C@@H](C7=CC(=O)OC7)CC[C@]65O)C4)O[C@@H]3C)O[C@@H]2C)C[C@H](O)[C@@H]1O` [Example 1, 12-Epi-digoxin] showed an EC50 [1] of 2.48 ± 0.3 µM, an Emax of 92 ± 6.5% and an EC50 [2] of 0.557 ± 0.07 µM. For the same compound, the “Contraction Amplitude maximum increase” value was 746 ± 56 mg and the therapeutic spectrum was 4.49±0.35.
`CO[C@H]1[C@@H](O)C[C@H](O[C@H]2[C@@H](O)C[C@H](O[C@H]3[C@@H](O)C[C@H](O[C@H]4CC[C@@]5(C)[C@H](CC[C@@H]6[C@@H]5C[C@H](O)[C@]5(C)[C@@H](C7=C(C)C(=O)OC7)CC[C@]65O)C4)O[C@@H]3C)O[C@@H]2C)O[C@@H]1C` [Example 12, 22-Methyl-12-epi-β-methyldigoxin] showed an EC50 [1] of 17 ± 1.7 µM, an EC50 [2] of 3.55 ± 0.41 µM and a therapeutic spectrum of 5.15±0.59.
With `CC(=O)O[C@H]1C[C@H](O[C@H]2[C@@H](O)C[C@H](O[C@H]3[C@@H](O)C[C@H](O[C@H]4CC[C@@]5(C)[C@H](CC[C@@H]6[C@@H]5C[C@H](O)[C@]5(C)[C@@H](C7=CC(=O)OC7)CC[C@]65O)C4)O[C@@H]3C)O[C@@H]2C)O[C@H](C)[C@H]1O` [Example 5, α-Acetyl-12-epi-digoxin] the EC50 [1] was 2.78 ± 0.28 µM, the EC50 [2] was 0.848 ± 0.09 µM and the therapeutic spectrum was 3.40±0.40.
`CCC1=C([C@H]2CC[C@]3(O)[C@@H]4CC[C@@H]5C[C@@H](O[C@H]6C[C@H](O)[C@H](O[C@H]7C[C@H](O)[C@H](O[C@H]8C[C@H](O)[C@H](O)[C@@H](C)O8)[C@@H](C)O7)[C@@H](C)O6)CC[C@]5(C)[C@H]4C[C@H](O)[C@]23C)COC1=O` [Example 9, 22-Ethyl-12-epi-digoxin] showed an EC50 [1] of 39.3 ± 3 µM, an EC50 [2] of 6.63 ± 0.75 µM and a therapeutic spectrum of 6.39±0.96.
In the case of `CC(=O)O[C@H]1[C@@H](O)C[C@H](O[C@H]2[C@@H](O)C[C@H](O[C@H]3[C@@H](O)C[C@H](O[C@H]4CC[C@@]5(C)[C@H](CC[C@@H]6[C@@H]5C[C@H](O)[C@]5(C)[C@@H](C7=CC(=O)OC7)CC[C@]65O)C4)O[C@@H]3C)O[C@@H]2C)O[C@@H]1C` [Example 6, β-Acetyl-12-epi-digoxin], the EC50 [1] is reported as 3.76 ± 0.25 µM, the EC50 [2] is reported as 0.921 ± 0.07 µM and the therapeutic spectrum is reported as 4.25±0.51.
In the case of `CO[C@H]1[C@@H](O)C[C@H](O[C@H]2[C@@H](O)C[C@H](O[C@H]3[C@@H](O)C[C@H](O[C@H]4CC[C@@]5(C)[C@H](CC[C@@H]6[C@@H]5C[C@H](O)[C@]5(C)[C@@H](C7=CC(=O)OC7)CC[C@]65O)C4)O[C@@H]3C)O[C@@H]2C)O[C@@H]1C` [Example 2, 12-Epi-β-methyldigoxin], the EC50 [1] is reported as 2.78 ± 0.4 µM, the Emax is reported as 96 ± 6.3% and the EC50 [2] is reported as 0.315 ± 0.02 µM. For the same compound, the “Contraction Amplitude maximum increase” value was 666 ± 78 mg and the therapeutic spectrum was 8.86±1.17.
`CO[C@H]1[C@@H](O)C[C@H](O[C@H]2[C@@H](O)C[C@H](O[C@H]3[C@@H](O)C[C@H](O[C@H]4CC[C@@]5(C)[C@H](CC[C@@H]6[C@@H]5C[C@H](OC(C)=O)[C@]5(C)[C@@H](C7=CC(=O)OC7)CC[C@]65O)C4)O[C@@H]3C)O[C@@H]2C)O[C@@H]1C` [Example 18, 12-Acetyl-12-epi-β-methyldigoxin] showed an EC50 [1] of 25.6 ± 2.9 µM, an EC50 [2] of 4.71 ± 0.81 µM and a therapeutic spectrum of 6.50±1.5.
Compound `CCC1=C([C@H]2CC[C@]3(O)[C@@H]4CC[C@@H]5C[C@@H](O[C@H]6C[C@H](O)[C@H](O[C@H]7C[C@H](O)[C@H](O[C@H]8C[C@H](O)[C@H](OC)[C@@H](C)O8)[C@@H](C)O7)[C@@H](C)O6)CC[C@]5(C)[C@H]4C[C@H](O)[C@]23C)COC1=O` [Example 13, 22-Ethyl-12-epi-β-methyldigoxin] has an EC50 [1] of 40.5 ± 2.6 µM, an EC50 [2] of 5.9 ± 0.48 µM and a therapeutic spectrum of 7.10±0.74.
Compound `CC(=O)O[C@H]1C[C@H]2[C@@H](CC[C@@H]3C[C@@H](O[C@H]4C[C@H](O)[C@H](O[C@H]5C[C@H](O)[C@H](O[C@H]6C[C@H](O)[C@H](O)[C@@H](C)O6)[C@@H](C)O5)[C@@H](C)O4)CC[C@@]32C)[C@@]2(O)CC[C@H](C3=CC(=O)OC3)[C@@]12C` [Example 7, 12-Acetyl-12-epi-digoxin] has an EC50 [1] of 13.8 ± 0.81 µM, an EC50 [2] of 2.86 ± 0.31 µM and a therapeutic spectrum of 5.15±0.71.
In the case of `CO[C@H]1[C@@H](O)C[C@H](O[C@H]2[C@@H](O)C[C@H](O[C@H]3[C@@H](O)C[C@H](O[C@H]4CC[C@@]5(C)[C@H](CC[C@@H]6[C@@H]5C[C@H](O)[C@]5(C)[C@@H](C7=C(C(C)C)C(=O)OC7)CC[C@]65O)C4)O[C@@H]3C)O[C@@H]2C)O[C@@H]1C` [Example 14, 22-Isopropyl-12-epi-β-methyldigoxin], the EC50 [1] is reported as 61.9 ± 5.2 µM, the EC50 [2] is reported as 21.6 ± 1.9 µM and the therapeutic spectrum is reported as 3.08±0.45.
With `C#CCC1=C([C@H]2CC[C@]3(O)[C@@H]4CC[C@@H]5C[C@@H](O[C@H]6C[C@H](O)[C@H](O[C@H]7C[C@H](O)[C@H](O[C@H]8C[C@H](O)[C@H](OC)[C@@H](C)O8)[C@@H](C)O7)[C@@H](C)O6)CC[C@]5(C)[C@H]4C[C@H](O)[C@]23C)COC1=O` [Example 26, 22-Propargyl-12-epi-β-methyldigoxin] the EC50 [1] was 14.6 ± 1.4 µM, the EC50 [2] was 4.46 ± 0.75 µM and the therapeutic spectrum was 3.94±1.0.
